{"source": "patent US9283161B2", "about": "“Aqueous cosmetic compositions containing resveratrol solubilized in a liquid phosphate ester surfactant” (DSM IP ASSETS B.V., priority 2011, dated 2016)", "assay": "Solubilisation of resveratrol in the self emulsifying cosmetic base (mixing at 30-40° C.)", "assay_type": "physicochemical", "settings": "Example 2, no co-emulsifier, continuous mixing at 30-40° C.", "experimental": "A self emulsifying cosmetic base exempt of co-emulsifier was prepared by dissolving resveratrol in trilaureth-4 phosphate by continuous mixing at moderate temperature (30-40° C.). […] In all cases spontaneously an aqueous emulsion was formed which upon separation (after >1 week) could be easily re-formed by mere shaking.", "data": [{"compound": "Oc1ccc(/C=C/c2cc(O)cc(O)c2)cc1", "note": "[resveratrol]", "values": [{"measurement": "appearance after dissolving resveratrol in trilaureth-4 phosphate", "value": "clear solution"}]}]}
